Reference: ChEMBL document CHEMBL5338744, “Development and Characterization of Benzoselenazole Derivatives as Potent and Selective c-MYC Transcription Inhibitors” (J Med Chem, 2023)
Calls of active or inactive are those of the source. No cut-off for these calls is given here.

Legend:
[1] = test system: HepG2; experiment: Cytotoxicity against human HepG2 cells assessed as reduction in cell viability incubated for 48 hrs by MTT assay; assay type: functional, cell-based; conditions: HepG2, 48 h
[2] = test system: HCT-116; experiment: Cytotoxicity against human HCT-116 cells assessed as reduction in cell viability incubated for 48 hrs by MTT assay; assay type: functional, cell-based; conditions: HCT-116, 48 h
[3] = Cytotoxicity against human NCM460 cells assessed as reduction in cell viability incubated for 48 hrs by MTT assay; assay type: toxicity, cell-based
[4] = biological target: Quadruplex DNA; experiment: Binding affinity to G-quadruplex DNA pu22 (unknown origin) by fluorescence spectroscopic analysis; assay type: nucleic-acid assay
[5] = biological target: Quadruplex DNA; experiment: Binding affinity to G-quadruplex DNA htg22 (unknown origin) by fluorescence spectroscopic analysis; assay type: nucleic-acid assay
[6] = biological target: Quadruplex DNA; experiment: Binding affinity to G-quadruplex DNA VEGF (unknown origin) by fluorescence spectroscopic analysis; assay type: nucleic-acid assay
[7] = Cytotoxicity against human L02 cells assessed as reduction in cell viability incubated for 48 hrs by MTT assay; assay type: toxicity, cell-based
[8] = biological target: Quadruplex DNA; experiment: Binding affinity to G-quadruplex DNA c-kit1 (unknown origin) by fluorescence spectroscopic analysis; assay type: nucleic-acid assay
[9] = biological target: Quadruplex DNA; experiment: Binding affinity to G-quadruplex DNA pu22 mutant (unknown origin) by fluorescence spectroscopic analysis; assay type: nucleic-acid assay
[10] = biological target: Quadruplex DNA; experiment: Binding affinity to G-quadruplex DNA ds26 (unknown origin) by fluorescence spectroscopic analysis; assay type: nucleic-acid assay
[11] = test system: HepG2; experiment: Downregulation of c-MYC expression level in human HepG2 cells incubated for 48 hrs by Western blotting analysis; assay type: functional, cell-based; conditions: dose 0-10 µM
[12] = test system: Quadruplex DNA; experiment: Binding affinity to G-quadruplex DNA pu22 (unknown origin) assessed as melting temperature at 10 uM by circular dichroism analysis
[13] = test system: HepG2; experiment: Inhibition of c-MYC transcription in human HepG2 cells up to 10 uM incubated for 48 hrs by RT-qPCR analysis; assay type: functional, cell-based
[14] = biological target: Quadruplex DNA; experiment: Binding affinity to G-quadruplex DNA HRAS (unknown origin) by fluorescence spectroscopic analysis; assay type: nucleic-acid assay

SMILES	IC50 [1]	IC50 [2]	IC50 at 48 h [3]	other results
CN(C)CCCn1c2ccccc2c2cc(/C=C/c3oc4ccccc4[n+]3C)ccc21	5.9 µM	4.7 µM	35.6 µM	–
C[n+]1c(/C=C/c2ccc3c(c2)c2ccccc2n3Cc2ccccc2)oc2ccccc21	96.2 µM	32.3 µM	> 100 µM	–
C(=C\c1nc2ccccc2s1)/c1ccc2c(c1)c1ccccc1n2Cc1ccccc1	53.2 µM	> 100 µM	> 100 µM	–
CCn1c2ccccc2c2cc(/C=C/c3nc4ccccc4[se]3)ccc21	13.4 µM	19.5 µM	> 100 µM	–
C(=C\c1nc2ccccc2[se]1)/c1ccc2c(c1)c1ccccc1n2Cc1ccccc1	> 100 µM	> 100 µM	> 100 µM	–
CN(C)CCCn1c2ccccc2c2cc(/C=C/c3nc4ccccc4o3)ccc21	21.6 µM	36.9 µM	> 100 µM	–
CCn1c2ccccc2c2cc(/C=C/c3nc4ccccc4o3)ccc21	37.7 µM	32.1 µM	> 100 µM	–
CCn1c2ccccc2c2cc(/C=C/c3[se]c4ccccc4[n+]3C)ccc21	1.6 µM	3.4 µM	29.2 µM	Kd [4]: 0.4 µM; Kd [5]: 8.8 µM; Kd [6]: 7.6 µM; IC50 at 48 h [7]: 27.3 µM; Kd [8]: 6.5 µM; Kd [9]: > 20 µM; Kd [10]: > 20 µM; Activity [11]: Dose-Dependent Effect; Tm [12]: 80.1 °C; inhibition [13]: Active; Kd [14]: > 20 µM
CCn1c2ccccc2c2cc(/C=C/c3sc4ccccc4[n+]3C)ccc21	5.7 µM	4 µM	39.3 µM	–
CCn1c2ccccc2c2cc(/C=C/c3sc4ccc5ccccc5c4[n+]3C)ccc21	8.3 µM	2.5 µM	26.1 µM	–
CCn1c2ccccc2c2cc(/C=C/c3nc4c(ccc5ccccc54)s3)ccc21	58.7 µM	> 100 µM	> 100 µM	–
CN(C)CCCn1c2ccccc2c2cc(/C=C/c3nc4ccccc4s3)ccc21	21.3 µM	42.9 µM	> 100 µM	–
